Experimental data: ChEMBL document CHEMBL1201862, “PubChem BioAssay data set” (2004)
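Values below derive from 48-hour exposures of cells grown in 96-well plates, with endpoints linearly interpolated between the two concentrations bracketing the appropriate inhibition level. Abbreviation: GI50, concentration required for 50% inhibition of growth.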 Activity calls are given as the source filed them. Cut-off read from the data, not from the text of the source: active = GI50 up to about 1.1 µM and inactive = higher.

Columns and labels:
Assay in all cases: growth of human tumour cells (NCI), 48 h
DMS-273 = tested on: DMS-273
HOP-18 = tested on: HOP-18
SNB-78 = tested on: SNB-78
DMS-114 = tested on: DMS-114
LXFL 529 = tested on: LXFL 529
RXF 631 = tested on: RXF 631
DU-145 = tested on: DU-145
MDA-MB-231 = tested on: MDA-MB-231
T47D = tested on: T47D

Measured: GI50

C[C@]12CC[C@H](O)C=C1CC[C@@H]1[C@@H]2CC[C@]2(C)C(c3ccc(=O)oc3)CC[C@]12O (stereo partly specified)
active: DMS-273 0.0125 µM | HOP-18 0.014 µM | SNB-78 0.0163 µM

CCCCCCCCCCCC[N+](CCCCCCCCCCCC)=C1SCCS1
inactive: DMS-114 1.7 µM | DMS-273 3.44 µM | HOP-18 16.4 µM | LXFL 529 3.81 µM | RXF 631 11.1 µM | SNB-78 3.61 µM

CN(C)c1ccc(N2C(=S)SC(=N\c3ccccc3)/C2=N/c2ccccc2)cc1
inactive: DU-145 > 100 µM | MDA-MB-231 > 100 µM | T47D > 100 µM

COC1=CC(=O)C=C(OC)C1=O [2,6-DIMETHOXYQUINONE]
inactive: DMS-114 5.81 µM | DMS-273 36.1 µM | HOP-18 45.8 µM | SNB-78 16.8 µM

COc1ccc(C(=O)/C(Br)=C/C(=O)O)cc1
inactive: DMS-114 18.6 µM | DMS-273 9.82 µM | DU-145 32 µM | HOP-18 45.8 µM | MDA-MB-231 28.2 µM | T47D 53.2 µM

COc1ccc2c(c1)c1cc(OC)ccc1n2CCCCOc1ccc(-c2c3ccccc3c(-c3ccc(OCCCCn4c5ccc(OC)cc5c5cc(OC)ccc54)cc3)c3ccccc23)cc1
inactive: DMS-114 > 100 µM | DMS-273 > 100 µM

CC(=O)C(C(=O)C(=O)Nc1cc(Cl)c(Cl)cc1Cl)c1csc(N)n1 (stereo unspecified)
inactive: DMS-114 > 100 µM | DMS-273 > 100 µM | LXFL 529 > 100 µM | RXF 631 > 100 µM | SNB-78 > 100 µM

CC(C)c1ccccc1SCc1cc(=O)cc(CSc2ccccc2C(C)C)o1
inactive: DU-145 23.1 µM | MDA-MB-231 17.9 µM | T47D 24 µM

CCN(CC)CCCNc1ncc(C)c2[nH]c3ccncc3c12
inactive: DMS-114 7.8 µM | DMS-273 7.26 µM | SNB-78 19.1 µM

COc1ccc2nc3ccc(OC)cc3c([S+]([O-])CCCl)c2c1 (stereo unspecified)
inactive: DU-145 1.99 µM | MDA-MB-231 5.87 µM | T47D 2.04 µM

CC1(C)N=C(N)N=C(N)N1c1ccc(OCCCOc2ccccc2)c(Cl)c1
active: DMS-114 0.076 µM | DMS-273 0.0262 µM | HOP-18 0.67 µM | SNB-78 0.538 µM

CCC1(c2ccccc2)C(=O)N=C(c2ccccc2)N1CCc1ccccc1 (stereo unspecified)
inactive: DU-145 > 100 µM | MDA-MB-231 > 100 µM | T47D > 100 µM

CC(NC(C#N)CC12CC3CC(CC(C3)C1)C2)c1ccccc1 (stereo unspecified)
inactive: DU-145 41.8 µM | MDA-MB-231 81.1 µM | T47D 52 µM

N/N=C1\C(=O)N(c2ccc(Cl)c(Cl)c2)C(=O)C1C(=O)Nc1ccc(Cl)c(Cl)c1 (stereo unspecified)
inactive: DMS-114 57.5 µM | HOP-18 21.6 µM | LXFL 529 46.5 µM | RXF 631 59.2 µM | SNB-78 24.7 µM

CC12Nc3ccccc3C1=C(c1ccccc1)CC1C(=O)OC(=O)C12 (stereo unspecified)
inactive: DMS-114 > 100 µM | DMS-273 > 100 µM | LXFL 529 > 100 µM | RXF 631 > 100 µM | SNB-78 > 100 µM

COC(=O)C1=C(OC(=O)/C=C/c2ccc(Cl)cc2)C(C(=O)OC)[C@@]2(O)[C@@H](C(=O)OC)[C@H](C)C[C@@H]1[C@@H]2C(=O)OC (stereo partly specified)
inactive: DU-145 39.4 µM | MDA-MB-231 24.5 µM | T47D 26.1 µM

CCOC(=O)C(NC(=O)Nc1ccccc1)(Nc1cccc(Cl)c1)C(F)(F)F (stereo unspecified)
inactive: DU-145 > 100 µM | MDA-MB-231 > 100 µM | T47D > 100 µM

C=CCn1c(=O)c(C)cn(COCCO)c1=O
inactive: DU-145 > 100 µM | MDA-MB-231 > 100 µM | T47D > 100 µM

C=C1C(=O)OC2C1CC1OC2C(C)CCC/C(C)=C\CCC1(C)O (stereo unspecified)
inactive: DMS-114 11.6 µM | DMS-273 16.2 µM | HOP-18 10.6 µM | SNB-78 12.1 µM

O=NN(CCCl)C(=O)N[C@H]1CCCC[C@@H]1Cl
inactive: DMS-114 34.2 µM | DMS-273 62.7 µM | HOP-18 > 100 µM | LXFL 529 > 100 µM

NC(=S)N/N=C1\c2ccccc2CCC1CCC1(O)CCc2ccccc2C1=O (stereo unspecified)
inactive: DU-145 37.8 µM | MDA-MB-231 26.8 µM | T47D 4.04 µM

C[S+](C)([O-])=Nn1c(=O)n2n(c1=O)[C@H]1CC[C@@H]2C1
inactive: DU-145 > 100 µM | MDA-MB-231 > 100 µM | T47D > 100 µM
